From paper PMC9138683, “Decoding the Role of Melatonin Structure on Plasmodium falciparum Human Malaria Parasites Synchronization Using 2-Sulfenylindoles Derivatives” (Biomolecules, 2022)
“Also recorded” adds a separate entry of the source.

Key:
[1] = system: P. falciparum 3D7 parasites; experiment: Effect of 2-sulfenylindoles in combination with 100 nM melatonin on parasitemia; assay type: cell-based, Plasmodium falciparum; settings: 3D7, 48 h; for Parasitemia (%), melatonin alone: 100 nM melatonin only, normalized to DMSO control (100.7%), combination experiment
Experimental: (§1) To evaluate the role of the compounds in parasitemia, 1% 3D7 parasites in 2% hematocrit were incubated for 48 h with 500 nM of the 2-sulfenylindole derivatives. Melatonin (100 nM) was used as a positive control, and DMSO (0.0013% v/v) was used as a negative control. The concentration of DMSO chosen as control was the concentration present in the tested compounds at 500 nM. The activity of the compounds was measured by SG-I and MT-Red staining. The data obtained were normalized to those of the control (DMSO). Additionally, to test the ability of the compounds to affect melatonin activity in parasitemia, 3D7 parasites were incubated with 500 nM indole compounds along with 100 nM melatonin for 48 h.
Following the assumption that compounds resembling melatonin structure might interact through the melatonin signaling pathways, we evaluated the effect of the compounds on melatonin action on parasitemia. Our next step was to study the combination of 2-sulfenylindoles with melatonin in asynchronous 3D7 by incubating parasites simultaneously with 100 nM melatonin and 500 nM of each compound.

Cytotoxicity assay (MTT) = assay type: cell-based, human; settings: human, HEK293T (HEK293) cells, 0.10-100 µM, read-out: CC50 ± SD HEK293
Experimental: (§2) HEK293T (human embryonic kidney) cells were cultured in 75 cm^2 vented tissue culture flasks (Greiner Bio-One, Frickenhausen, Germany) at 37 °C in a humidified atmosphere containing 5% CO2 in Dulbecco’s modified […] (Gibco) supplemented with 10% (v/v) fetal bovine serum (Gibco), 100 U/mL penicillin, and 100 μg/mL streptomycin (Sigma). Cytotoxicity was evaluated with the 4,5-dimethylthiazol-2-yl-2,5-diphenyltetrazolium bromide (MTT) cell proliferation assay. Briefly, 10^4 cells/well were seeded in flat-bottom 96-well plates in complete DMEM medium for 24 h, followed by incubation with different concentrations of each compound (0.10–100 µM) for 72 h. DMSO (0.13%) and digitonin were used as the negative and positive controls, respectively. The concentrations of DMSO chosen as control were the concentration present in the tested compounds (from 0.0001% to 0.12%, two-fold dilution). After 72 h, cells were then incubated with the MTT reagent for 3 h, and absorbance was measured at 570 nm using a FlexStation® 3 Multi-Mode Microplate Reader (Molecular Devices, Sunnyvale, CA, USA). Moreover, we calculated the selectivity indexes (SI) to understand whether the compounds were more toxic to parasites than cells, or vice versa, according to the ratio of the CC50 value to the IC50 value for each compound.
(§3) We further assessed the toxicity of 2-sulfenylindole compounds against HEK293 cells using the MTT assay with different concentrations of the compounds for 72 h. Table 1 presents all the toxicity data and summarizes the IC50 values of the compounds evaluated in this study for Dd2 and 3D7 strains.

HEK293 cell line = experiment: Cytotoxicity assay (MTT); assay type: cell-based, human; settings: 72 h
Experimental: as §2, §3

[2] = system: P. falciparum 3D7 parasites; experiment: Effects of indole derivatives (500 nM) on parasitemia; assay type: cell-based, Plasmodium falciparum; settings: for Parasitemia (%), melatonin alone: normalized to DMSO control (100.6%), compound-alone experiment
Experimental: as §1
After incubation, the final parasitemia was determined using flow cytometry.

[3] = system: Plasmodium falciparum 3D7 (chloroquine-sensitive); experiment: In vitro drug susceptibility assay, 3D7 strain (flow cytometry, SYBR Green I / MitoTracker Deep Red); assay type: cell-based; settings: Plasmodium falciparum, 3D7, 72 h, asynchronous parasites, 72 h, 0.1-100 µM; read-out: IC50 ± SD Pf3D7
Experimental: The cultures were maintained under an atmosphere of 5% CO2, 5% O2, and 90% N2. Fresh complete medium was provided daily, and rapid-stained (Panotico) blood smears were examined.
To evaluate the effects of synthetic compounds on the intraerythrocytic development of P. falciparum, we analyzed parasitemia by flow cytometry with 0.3% initial parasitemia and 1% hematocrit in the assay. Plates were incubated with the compounds at concentrations ranging from 0.10 to 100 µM for 72 h. Dual staining with SYBR Green I (SG-I) (Invitrogen, Waltham, MA, USA) and MitoTracker Deep Red (MT-Red) (Invitrogen) were used to label nucleic acids and mitochondria, respectively. Approximately 10,000 cells were counted by an Accuri C6 (Becton Dickinson, San Jose, CA, USA) and analyzed by FlowJo 5 software. Parasitemia was determined from the analysis of dot plots (side scatter versus fluorescence).
We determined the susceptibility of P. falciparum to the indole compounds and investigated whether CQR parasites responded differently to the compounds. […] We determined the IC50 values for each compound by analyzing viable and non-viable parasites after compound treatment, represented in dot plots (Figure 1H).

P. falciparum 3D7 strain = experiment: Blood-stage development evaluation by microscopy; assay type: cell-based, Plasmodium falciparum
Experimental: Ring-stage parasites (10–14 h) at 1% parasitemia in 2% hematocrit were treated with compound 20 and compound 28 at concentrations of 1 and 30 µM in 24-well plates for 48 h. Treatment with chloroquine (20 nM) and DMSO (0.1%) was used as positive and negative controls. Smears were rapid stained (Panotico) every 12 h after treatment (12, 24, 36, 48, and 60 h time points), and we took images of parasites to assess the blood-stage development (Zeiss, Oberkochen, Germany).
During monitoring, parasites continued to develop throughout the cycle in the presence of both compounds. […] To examine its stage specificity, we monitored development every 12 h.
Figure 5 Parasitemia reduction with compound 20 (A) and compound 28 (B) to determine the stage activity. Data are means ± SD. Ring-stage synchronized parasites with sorbitol 5% were treated with chloroquine (20 nM), compound 20 (30 µM), and compound 28 (30 µM). The chosen treatment concentration was the IC50 values obtained for these compounds against the 3D7 parasites. (C) After drug administration, smears of P. falciparum 3D7 strain were taken at 0, 12, 24, 36, 48, and 60 h after drug administration, observing the growth development of treated parasites. * p ≤ 0.05, ** p ≤ 0.01, *** p ≤ 0.001.

[4] = system: CDPKs, PKG, and its accessory genes; experiment: Real-time PCR of CDPKs, PKG and accessory genes after melatonin treatment; assay type: cell-based, Plasmodium falciparum
Experimental: P. falciparum trophozoites (approximately 30–34 h post invasion) were treated with 100 nM and 1 µM melatonin (SIGMA-Aldrich, Burlington, MA, USA). RNA was extracted with Trizol (Life Technologies, Carlsbad, CA, USA) 1 and 3 h post treatment. cDNA synthesis was carried out using random primers and Superscript IV reverse transcriptase (Life Technologies) according to the manufacturer’s protocol. Oligonucleotides used are listed in Supplementary Table S1. SYBR Green incorporation was measured during PCR amplification performed on the 7300 Real-Time PCR System (Applied Biosystems, Foster City, CA, USA). The statistical analysis was performed by applying Student’s t-test on the log2 values of relative expression (delta delta Ct method) of the genes (normalized with the seryl t-RNA synthase housekeeping gene).
Previous studies have shown that melatonin alters the expression of the ubiquitin/proteasome system, mitochondrial FIS1, DYN2 [27], and nuclear PfMORC [28]. These findings lead us to investigate the effect of melatonin on kinases, phosphodiesterase, and cyclase for two reasons; first, kinases and their components are required for rupturing the parasites to facilitate egress in both asexual and sexual stages. […] We treated the late-stage trophozoite with two different melatonin concentrations (100 nM and 1 µM) for two time points (1 and 3 h). […] It is possible that melatonin may act upstream of PKG and modulates cytosolic calcium, but this hypothesis requires more experimental validation.
Figure 6 Differential transcription of CDPKs, PKG, and its accessory genes from parasites treated with melatonin for 1 and 3 h. Sorbitol synchronized parasites were treated with melatonin, and RNA samples were extracted, purified, and transcript level was investigated by RT-qPCR. Expression of genes has been normalized by housekeeping seryl-tRNA Synthetase expression for (A) 100 nM melatonin for 1 h; (B) 100 nM melatonin for 3 h; (C) 1 μM melatonin for 1 h; and (D) 1 μM melatonin for 3 h. […]

Structure (SMILES)	Parasitemia (%) Treatment with compound (500nM) + Melatonin (100nM) ([1]; normalized to DMSO control)	CC50 at 72 h (Cytotoxicity assay (MTT))	cytotoxic effect against HEK293 cells (in words) (HEK293 cell line)	effect on parasitemia (in words) ([2]; 500 nM compound alone, 3D7 asynchronous, 48 h)	increase in parasitemia ([2]; 500 nM compound, 3D7, 48 h, compared to DMSO control (100.6%))	activity at 0.5 µM ([2]; Plasmodium falciparum, 3D7, 48 h, normalized to DMSO control, read-out: Parasitemia (%) Treatment with compound (500nM))	IC50 [3]	effect on parasitemia during blood-stage progression (P. falciparum 3D7 strain; 3D7, ring-stage synchronized, 30 µM (IC50), Figure 5A,B)	stage-specific effect on blood-stage development (P. falciparum 3D7 strain; ring-stage synchronized 3D7, treated at IC50 (30 µM for 20 and 28), monitored every 12 h)	Parasitemia (%), melatonin alone [1]	Parasitemia (%), melatonin alone ([1]; listed as melatonin)	rise in parasitemia ([2]; 100 nM melatonin, 3D7, 48 h, from 100.6% (control))	Parasitemia (%), melatonin alone ([2]; 100 nM melatonin, 3D7, 48 h)	Parasitemia (%), melatonin alone ([2]; 100 nM melatonin, 3D7, 48 h, listed as melatonin)	change in gene expression ([4]; 100 nM melatonin for 1 h, late-stage trophozoite, CDPK1 and GCα)	change in gene expression ([4]; 100 nM melatonin, after 3 h, additional CDPK6, CDPK7, PKG, PDEα, and GCβ)	change in gene expression ([4]; 1 µM melatonin for 3 h, cGMP-dependent signaling component)
COC(=O)Cc1c(SCCCCCCCCCCC(=O)O)[nH]c2ccccc12 [Compound 20]	122.3 ± 3.71%	> 100 µM	low cytotoxic effect	led to an increase in parasitemia; also recorded: significantly increase the parasitemia	9.1%	110 ± 4.07%	28.8 ± 4.86 µM	significantly affect parasitemia	affects RBC reinvasion	–	–	–	–	–	–	–	–
COc1ccc2[nH]cc(CCNC(C)=O)c2c1 [Melatonin]	–	–	–	–	–	–	–	–	–	113.5 ± 2.75%	113.5%	6.9%	107.5 ± 4.32%	107.5%	very minor effect	increased expression	most prominent effect
